For one series, the target named is full length AR (Homo sapiens (Human), UniProt P10275). The series can be described thus: mmTV-luciferase reporter assay, full length AR in HeLa cells. The series is classed as cell-based. The protocol: In order to test the effect of antiandrogens on full length AR, a mmTV-luciferase reporter assay was used. An AR-response element is contained within the mmTV sequence and drives the expression of luciferase. The effect of antiandrogens (competitive antagonists) on this process is measured by quantifying the amount of luciferase activity after 24 hours in the presence of varying concentrations of antiandrogens. From these values, an IC50 for each antagonist is calculated. Experimentally, HeLa cells were maintained in Dulbecco's modified Eagle's medium H-21 4.5 g/L glucose, containing 10% steroid depleted fetal bovine serum, 50 units/mL penicillin. For transfection, (1×10^5) cells per well were plated and incubated overnight. […] Cells were induced with 1 nM DHT and 0.1 nM-30 uM compounds after 3 hrs and then incubated overnight. Cells were collected, and pellets were lysed in 100 μL of 100 mM Tris-HCl (pH 7.5) containing 0.1% Triton X-100. Luciferase and β-galactosidase activities were measured using the Luciferase Assay System (Promega) and Galacto-Light Plus-galactosidase reporter gene assay system (Applied Biosystems), according to the manufacturer's instructions.
(In a reporter assay the amount or activity of a reporter protein is the signal.)

For series [1], the target named is AR ligand-binding domain (AR LBD) (Homo sapiens (Human), UniProt P10275). The series can be described thus: Gal4-luciferase reporter assay, Gal-AR LBD in HeLa cells. It is filed as cell-based. The source says: In order to test the effect of ligands on the AR ligand-binding domain (AR LBD), a Gal4-luciferase reporter assay was used. Briefly, the AR LBD is expressed as a fusion with the Gal4 transcription factor, which binds to the Gal4 reporter DNA. Upon activation with agonist hormone (DHT), the Gal-AR LBD binds to the Gal4 reporter gene, which in turn drives the transcription (and subsequently translation) of the reporter luciferase. The effect of antiandrogens (competitive antagonists) on this process is measured by quantifying the amount of luciferase activity after 24 hours in the presence of varying concentrations of antiandrogens. From these values, an IC50 for each antagonist is calculated. Experimentally, Hela cells were maintained in Dulbecco's modified Eagle's medium H-21 4.5 g/L glucose, containing 10% steroid depleted fetal bovine serum, 50 units/mL penicillin. For transfection, (1×10^5) cells per well were plated and incubated overnight. […] Cells were induced with 1 nM DHT and 0.1 nM-30 uM test compounds after 3 hr and then incubated over night. Cells were collected, and pellets were lysed in 100 μL of 100 mM Tris-HCl (pH 7.5) containing 0.1% Triton X-100. Luciferase and β-galactosidase activities were measured using the Luciferase Assay System (Promega) and Galacto-Light Plus-galactosidase reporter gene assay system (Applied Biosystems), according to the manufacturer's instructions.

Series [2] has as its target endogenous full length AR (Homo sapiens (Human), UniProt P10275, T878A). The series can be described thus: mmTV-luciferase reporter assay, endogenous AR in LNCaP cells. It is filed as cell-based. Particulars: 10 nM DHT, read-out: LVCaP data.
The conditions of series [3]: in vivo; cited from earlier work.
Setting [4] is: full length AR, mmTV-luciferase reporter, HeLa cells, 1 nM DHT, read-out: FL IC50.
[5] abbreviates: in relationship to the experimental casodex data.
The mark [6] stands for this setting: Gal-AR LBD, Gal4-luciferase reporter, HeLa cells, 1 nM DHT, read-out: LBD IC50.

Structures are written as SMILES. Like-named read-outs stand apart in the source and are kept apart here.

AR ligand-binding domain (AR LBD), sequence (P10275 669-900): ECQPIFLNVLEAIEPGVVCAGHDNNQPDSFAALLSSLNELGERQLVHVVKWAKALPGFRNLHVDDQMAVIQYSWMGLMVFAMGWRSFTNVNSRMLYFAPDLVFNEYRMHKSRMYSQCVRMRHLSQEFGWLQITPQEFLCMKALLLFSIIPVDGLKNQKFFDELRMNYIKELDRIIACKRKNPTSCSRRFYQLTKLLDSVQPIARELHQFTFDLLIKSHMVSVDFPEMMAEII
full length AR, sequence (P10275 other isoform, or with tags, fused parts or gaps): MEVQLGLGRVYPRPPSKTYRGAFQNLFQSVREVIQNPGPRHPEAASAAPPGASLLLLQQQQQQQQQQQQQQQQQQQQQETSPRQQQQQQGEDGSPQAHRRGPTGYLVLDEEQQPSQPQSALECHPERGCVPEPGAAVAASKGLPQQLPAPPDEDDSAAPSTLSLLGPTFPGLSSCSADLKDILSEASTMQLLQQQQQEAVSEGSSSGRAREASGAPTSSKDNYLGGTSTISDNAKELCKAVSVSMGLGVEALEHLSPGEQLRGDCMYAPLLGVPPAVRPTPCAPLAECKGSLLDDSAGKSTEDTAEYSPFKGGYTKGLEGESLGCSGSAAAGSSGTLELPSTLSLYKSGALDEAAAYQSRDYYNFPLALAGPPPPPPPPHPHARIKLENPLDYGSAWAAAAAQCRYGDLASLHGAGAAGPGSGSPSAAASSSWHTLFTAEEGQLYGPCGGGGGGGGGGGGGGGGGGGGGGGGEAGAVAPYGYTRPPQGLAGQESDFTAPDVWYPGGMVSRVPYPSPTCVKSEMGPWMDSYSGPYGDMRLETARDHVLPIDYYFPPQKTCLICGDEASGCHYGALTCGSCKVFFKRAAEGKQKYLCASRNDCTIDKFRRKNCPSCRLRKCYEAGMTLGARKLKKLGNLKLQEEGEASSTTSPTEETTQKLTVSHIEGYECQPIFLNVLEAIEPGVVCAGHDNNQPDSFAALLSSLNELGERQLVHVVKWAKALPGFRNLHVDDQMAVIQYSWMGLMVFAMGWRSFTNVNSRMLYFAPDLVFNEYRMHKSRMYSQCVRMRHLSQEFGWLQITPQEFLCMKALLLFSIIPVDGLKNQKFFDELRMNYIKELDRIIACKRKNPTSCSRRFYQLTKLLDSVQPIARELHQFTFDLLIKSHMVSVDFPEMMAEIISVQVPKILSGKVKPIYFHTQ
endogenous full length AR, sequence (P10275 whole entry T878A): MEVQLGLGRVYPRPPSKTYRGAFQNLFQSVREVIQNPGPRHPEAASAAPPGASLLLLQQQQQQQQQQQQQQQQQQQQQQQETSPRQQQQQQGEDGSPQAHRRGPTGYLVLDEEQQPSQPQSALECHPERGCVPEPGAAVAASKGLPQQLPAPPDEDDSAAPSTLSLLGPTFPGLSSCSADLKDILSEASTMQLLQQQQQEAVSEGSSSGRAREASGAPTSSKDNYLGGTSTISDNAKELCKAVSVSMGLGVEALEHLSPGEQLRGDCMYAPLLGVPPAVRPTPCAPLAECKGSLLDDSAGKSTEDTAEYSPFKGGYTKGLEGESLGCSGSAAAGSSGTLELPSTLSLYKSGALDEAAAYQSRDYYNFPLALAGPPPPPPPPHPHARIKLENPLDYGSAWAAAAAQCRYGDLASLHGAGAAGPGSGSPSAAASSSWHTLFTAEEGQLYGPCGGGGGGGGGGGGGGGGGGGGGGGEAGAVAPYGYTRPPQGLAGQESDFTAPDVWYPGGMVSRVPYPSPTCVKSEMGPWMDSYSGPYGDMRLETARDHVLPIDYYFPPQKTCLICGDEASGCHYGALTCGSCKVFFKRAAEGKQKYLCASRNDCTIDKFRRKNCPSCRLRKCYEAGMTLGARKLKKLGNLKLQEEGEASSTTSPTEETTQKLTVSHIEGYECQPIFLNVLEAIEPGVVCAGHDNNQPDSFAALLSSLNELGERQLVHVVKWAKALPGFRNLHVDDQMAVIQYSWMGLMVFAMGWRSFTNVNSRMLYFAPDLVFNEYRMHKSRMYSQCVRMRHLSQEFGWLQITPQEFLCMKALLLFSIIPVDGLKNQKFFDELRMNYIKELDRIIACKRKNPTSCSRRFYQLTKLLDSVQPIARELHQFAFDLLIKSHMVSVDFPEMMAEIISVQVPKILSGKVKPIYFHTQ

For the compound `C[C@](O)(CS(=O)(=O)c1ccc(F)cc1)C(=O)Nc1cc(C(F)(F)F)c(C#N)cn1` [FC 3.077], at full length AR, the “Fold chg (FL)” value is given as 0.33. In series [1], the “Fold change*” value was 0.74, the “Fold chg (LBD)” value amounted to 0.74 and the IC50 amounted to 490 ± 60 nM.

Regarding `C=CS(=O)(=O)C(c1ccc(NC(=O)[C@@](C)(O)CS(=O)(=O)c2ccc(F)cc2)cc1C(F)(F)F)S(=O)(=O)C=C` [FC 4.025], the IC50 on full length AR (setting [4]) worked out at 1.29 ± 1.29 µM; in series [1] (setting [6]) it was 580 ± 110 nM. Besides, the “Fold chg (FL)” value at full length AR (setting [5]) turned out to be 0.78. Also, the “Fold chg (LBD)” value in series [1] (setting [5]) is listed as 0.62.

As for `C=CC(=O)Nc1ccc(NC(=O)[C@@](C)(O)CS(=O)(=O)c2ccc(F)cc2)cc1C(F)(F)F` [FC 4.039], the IC50 in series [1] (setting [6]) is 750 ± 260 nM. Besides, in series [1] (setting [5]), the “Fold chg (LBD)” value was found to be 0.48.

As for `C[C@](O)(CS(=O)(=O)c1ccc(F)cc1)C(=O)Nc1cccc(C(F)(F)F)c1` [FC 4.116], the values for the IC50 (at full length AR (setting [4]); in series [2]; in series [1] (setting [6])) were 71.7 µM, 530 ± 270 nM and 2530 ± 1160 nM, respectively. Also, at full length AR (setting [5]), the “Fold chg (FL)” value was determined as 0.014. Also, the “Fold change*” value in series [1] (Table 4, relative to CDX) is listed as 0.14. The “Fold chg (LBD)” value in series [1] (setting [5]) came to 0.14.

The compound `C[C@](O)(CS(=O)(=O)c1ccc(F)cc1)C(=O)Nc1cc(C(F)(F)F)ccn1` [FC 4.125] displayed an IC50 in series [1] of 22400 ± 41800 nM. Moreover, in series [1] (Table 4, relative to CDX), the “Fold change*” value is 0.016. Moreover, the “Fold chg (LBD)” value in series [1] (setting [5]) is recorded as 0.016.

As to `C[C@](O)(CS(=O)(=O)c1ccc(F)cc1)C(=O)Nc1cncc(C(F)(F)F)c1` [FC 4.126], the IC50 worked out at 12.4 ± 14.2 µM at full length AR (setting [4]), 110 ± 20 nM in series [2] and 1550 ± 410 nM in series [1] (setting [6]). Besides, the “Fold chg (FL)” value at full length AR (setting [5]) is listed as 0.08. Moreover, in series [1] (Table 4, relative to CDX), the “Fold change*” value is listed as 0.23. Moreover, the “Fold chg (LBD)” value in series [1] (setting [5]) is given as 0.23.

With `C[C@](O)(CS(=O)(=O)c1ccc(F)cc1)C(=O)Nc1ccc([N+](=O)[O-])c(C(F)(F)F)c1` [FC 4.127], on full length AR, the “Fold chg (FL)” value stood at 0.11 and the IC50 was determined as 8.74 ± 15.8 µM. In series [1], the “Fold change*” value is given as 0.05, the “Fold chg (LBD)” value came to 0.050 and the IC50 stood at 7260 ± 10700 nM.

Consider `CC(O)(CS(=O)(=O)c1ccc(F)cc1)C(=O)Nc1ccc(C#N)c(C(F)(F)F)c1` (stereo not shown) [bicalutamide], for which the tolerability result in series [3] is recorded as “well tolerated with very few side effects”.

Source of the values: patent US10053433B2, “Androgen receptor antagonists” (THE REGENTS OF THE UNIVERSITY OF CALIFORNIA, priority 2014, dated 2018).
